Data taken from ChEMBL document CHEMBL1201862, “PubChem BioAssay data set” (2004).
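The compound was tested at five concentrations on cells cultured in 96-well plates, with a 48-hour exposure period. GI50 = concentration required for 50% inhibition of growth.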 Calls of active or inactive are those of the source. No stated cut-off is given here; in the data, active = GI50 up to about 1.1 µM and inactive = higher.

Legend:
Experiment in all cases: inhibition of tumour cell growth, NCI panel, 48 h
U-251 = test system: U-251
HOP-18 = test system: HOP-18
OVCAR-8 = test system: OVCAR-8
KM-20L2 = test system: KM-20L2
LOX IMVI = test system: LOX IMVI
NCI-H460 = test system: NCI-H460
DLD-1 = test system: DLD-1
HCT-116 = test system: HCT-116
SF-295 = test system: SF-295
SF-539 = test system: SF-539
DMS-114 = test system: DMS-114
SNB-78 = test system: SNB-78
UO-31 = test system: UO-31
EKVX = test system: EKVX
DMS-273 = test system: DMS-273
HCC 2998 = test system: HCC 2998
CCRF-CEM = test system: CCRF-CEM
HL-60 = test system: HL-60
SW-620 = test system: SW-620
CAKI-1 = test system: CAKI-1
LXFL 529 = test system: LXFL 529
SN12C = test system: SN12C
SK-MEL-28 = test system: SK-MEL-28
UACC-257 = test system: UACC-257
KM12 = test system: KM12
SK-MEL-5 = test system: SK-MEL-5
IGROV-1 = test system: IGROV-1
OVCAR-4 = test system: OVCAR-4
RXF 631 = test system: RXF 631
NCI-H522 = test system: NCI-H522
COLO 205 = test system: COLO 205
OVCAR-5 = test system: OVCAR-5
M14 = test system: M14
MOLT-4 = test system: MOLT-4
UACC-62 = test system: UACC-62
SF-268 = test system: SF-268
TK-10 = test system: TK-10
786-0 = test system: 786-0
SK-OV-3 = test system: SK-OV-3
ACHN = test system: ACHN
SK-MEL-2 = test system: SK-MEL-2
HT-29 = test system: HT-29
RPMI-8226 = test system: RPMI-8226
M19-MEL = test system: M19-MEL
NCI-H226 = test system: NCI-H226
Malme-3M = test system: Malme-3M
A549 = test system: A549
SNB-75 = test system: SNB-75
HOP-92 = test system: HOP-92
XF498 = test system: XF498
OVCAR-3 = test system: OVCAR-3
SR = test system: SR
RXF 393 = test system: RXF 393
K562 = test system: K562
HOP-62 = test system: HOP-62
SNB-19 = test system: SNB-19
NCI-H23 = test system: NCI-H23
HCT-15 = test system: HCT-15
A498 = test system: A498

In the case of CCOC(=O)C1=C(C)N(c2ccccc2)C2=C(C(=O)N(c3ccccc3)C2c2ccccc2)C1c1ccccc1 (stereo not given), the GI50 (U-251) is reported as > 100 µM (inactive), the GI50 (HOP-18) is reported as > 100 µM (inactive) and the GI50 (OVCAR-8) is reported as > 100 µM (inactive). For the same molecule, the GI50 (KM-20L2) was > 100 µM (inactive), the GI50 (LOX IMVI) was > 100 µM (inactive) and the GI50 (NCI-H460) was > 100 µM (inactive). The GI50 (DLD-1) was > 100 µM (inactive), the GI50 (HCT-116) was > 100 µM (inactive) and the GI50 (SF-295) was > 100 µM (inactive). The GI50 (SF-539) was > 100 µM (inactive), the GI50 (DMS-114) was > 100 µM (inactive) and the GI50 (SNB-78) was > 100 µM (inactive). The GI50 (UO-31) was > 100 µM (inactive), the GI50 (EKVX) was > 100 µM (inactive) and the GI50 (DMS-273) was > 100 µM (inactive). The GI50 (HCC 2998) was > 100 µM (inactive), the GI50 (CCRF-CEM) was > 100 µM (inactive) and the GI50 (HL-60) was > 100 µM (inactive). For the same molecule, the GI50 (SW-620) was > 100 µM (inactive), the GI50 (CAKI-1) was > 100 µM (inactive) and the GI50 (LXFL 529) was > 100 µM (inactive). For the same molecule, the GI50 (SN12C) was > 100 µM (inactive), the GI50 (SK-MEL-28) was > 100 µM (inactive) and the GI50 (UACC-257) was > 100 µM (inactive). The GI50 (KM12) was > 100 µM (inactive), the GI50 (SK-MEL-5) was > 100 µM (inactive) and the GI50 (IGROV-1) was > 100 µM (inactive). For the same molecule, the GI50 (OVCAR-4) was > 100 µM (inactive), the GI50 (RXF 631) was > 100 µM (inactive) and the GI50 (NCI-H522) was > 100 µM (inactive). The GI50 (COLO 205) was > 100 µM (inactive), the GI50 (OVCAR-5) was > 100 µM (inactive) and the GI50 (M14) was > 100 µM (inactive). The GI50 (MOLT-4) was > 100 µM (inactive), the GI50 (UACC-62) was > 100 µM (inactive) and the GI50 (SF-268) was > 100 µM (inactive). For the same molecule, the GI50 (TK-10) was > 100 µM (inactive), the GI50 (786-0) was > 100 µM (inactive) and the GI50 (SK-OV-3) was > 100 µM (inactive). For the same molecule, the GI50 (ACHN) was > 100 µM (inactive), the GI50 (SK-MEL-2) was > 100 µM (inactive) and the GI50 (HT-29) was > 100 µM (inactive). For the same molecule, the GI50 (RPMI-8226) was > 100 µM (inactive), the GI50 (M19-MEL) was > 100 µM (inactive) and the GI50 (NCI-H226) was > 100 µM (inactive). For the same molecule, the GI50 (Malme-3M) was > 100 µM (inactive), the GI50 (A549) was > 100 µM (inactive) and the GI50 (SNB-75) was > 100 µM (inactive). The GI50 (HOP-92) was > 100 µM (inactive), the GI50 (XF498) was > 100 µM (inactive) and the GI50 (OVCAR-3) was > 100 µM (inactive). The GI50 (SR) was > 100 µM (inactive), the GI50 (RXF 393) was > 100 µM (inactive) and the GI50 (K562) was > 100 µM (inactive). For the same molecule, the GI50 (HOP-62) was > 100 µM (inactive), the GI50 (SNB-19) was > 100 µM (inactive) and the GI50 (NCI-H23) was > 100 µM (inactive).
CC1(C)CC(N(C(=O)/C=C/c2ccc([N+](=O)[O-])o2)C2CCCCC2)CC(C)(C)N1 was tested, and the GI50 (U-251) was 5.35 µM (inactive), the GI50 (HOP-18) was 22.8 µM (inactive) and the GI50 (OVCAR-8) was 5.2 µM (inactive). The GI50 (KM-20L2) was 5.38 µM (inactive), the GI50 (LOX IMVI) was 12 µM (inactive) and the GI50 (NCI-H460) was 3.71 µM (inactive). The GI50 (DLD-1) was 1.73 µM (inactive), the GI50 (HCT-116) was 3.18 µM (inactive) and the GI50 (SF-295) was 13.5 µM (inactive). The GI50 (SF-539) was 9.86 µM (inactive), the GI50 (DMS-114) was 2.55 µM (inactive) and the GI50 (SNB-78) was 10.5 µM (inactive). For the same molecule, the GI50 (UO-31) was 12.2 µM (inactive), the GI50 (EKVX) was 13.9 µM (inactive) and the GI50 (DMS-273) was 5.52 µM (inactive). For the same molecule, the GI50 (HCC 2998) was 11.3 µM (inactive), the GI50 (CCRF-CEM) was 3.25 µM (inactive) and the GI50 (HL-60) was 2.21 µM (inactive). The GI50 (SW-620) was 2.55 µM (inactive), the GI50 (CAKI-1) was 5.52 µM (inactive) and the GI50 (LXFL 529) was 5.36 µM (inactive). For the same molecule, the GI50 (SN12C) was 6.22 µM (inactive), the GI50 (SK-MEL-28) was 12.5 µM (inactive) and the GI50 (UACC-257) was 11.1 µM (inactive). For the same molecule, the GI50 (KM12) was 10.3 µM (inactive), the GI50 (SK-MEL-5) was 10.2 µM (inactive) and the GI50 (IGROV-1) was 14.3 µM (inactive). For the same molecule, the GI50 (OVCAR-4) was 10.4 µM (inactive), the GI50 (RXF 631) was 10.6 µM (inactive) and the GI50 (NCI-H522) was 7.91 µM (inactive). For the same molecule, the GI50 (OVCAR-5) was 23.6 µM (inactive), the GI50 (M14) was 2.82 µM (inactive) and the GI50 (MOLT-4) was 3.96 µM (inactive). For the same molecule, the GI50 (UACC-62) was 10 µM (inactive), the GI50 (SF-268) was 7.62 µM (inactive) and the GI50 (TK-10) was 21.3 µM (inactive). For the same molecule, the GI50 (786-0) was 6.82 µM (inactive), the GI50 (SK-OV-3) was 28.6 µM (inactive) and the GI50 (ACHN) was 12.8 µM (inactive). For the same molecule, the GI50 (HT-29) was 4.49 µM (inactive), the GI50 (RPMI-8226) was 3.29 µM (inactive) and the GI50 (M19-MEL) was 5.11 µM (inactive). For the same molecule, the GI50 (A549) was 15 µM (inactive), the GI50 (SNB-75) was 10.5 µM (inactive) and the GI50 (HOP-92) was 3.65 µM (inactive). For the same molecule, the GI50 (XF498) was 11.4 µM (inactive), the GI50 (OVCAR-3) was 12.3 µM (inactive) and the GI50 (HCT-15) was 7.45 µM. The GI50 (SR) was 5.89 µM (inactive), the GI50 (HOP-62) was 20 µM (inactive) and the GI50 (SNB-19) was 13.1 µM (inactive). For the same molecule, the GI50 (A498) was 16.2 µM (inactive) and the GI50 (NCI-H23) was 9.46 µM (inactive).
